This passage reports TGI results from PubChem BioAssay (NCI).

Some test systems named below: LOX IMVI melanoma; SNB-75 CNS; OVCAR-5 ovarian; NCI-H226 lung; UACC-257 melanoma; CAKI-1 renal; ACHN renal; SK-OV-3 ovarian; OVCAR-3 ovarian.
Common to all, as to test: growth of human tumour cells (NCI), 48 h

Each structure is given as a SMILES string.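 Step 1: Grow cells in 96-well plates. Step 2: Expose to compound for 48 hours at 5 concentrations. Step 3: Interpolate endpoints linearly; if unreached, use highest concentration. TGI is the concentration that stops growth completely.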

For the compound `N#Cc1cc([N+](=O)[O-])ccc1NC(=O)C(=O)C(C(=O)/C=C/c1ccccc1)C1OC(=O)c2ccccc21` (stereo unspecified), the TGI with LOX IMVI melanoma, in the assay on SNB-75 CNS, in the assay on OVCAR-5 ovarian, in the assay with NCI-H226 lung, in the assay on UACC-257 melanoma and with CAKI-1 renal was over 100 µM throughout. Further, the TGI with ACHN renal, with SK-OV-3 ovarian and in the assay on OVCAR-3 ovarian was over 100 µM throughout.
Regarding `CC1C=CC(=O)C(n2cc(F)c(=O)[nH]c2=O)O1` (stereo unspecified), the TGI in the assay on LOX IMVI melanoma amounted to 33.6 µM; in the assay with SNB-75 CNS it was 38.2 µM; with UACC-257 melanoma, 30 µM; in the assay on CAKI-1 renal, 24.2 µM; in the assay on ACHN renal, 36.8 µM; in the assay with SK-OV-3 ovarian, 61 µM. This compound gave a TGI with OVCAR-3 ovarian of 31.2 µM.
For the compound `CC1=C(C(=O)NCc2ccccc2)C(c2ccccc2[N+](=O)[O-])C(C(=O)NCc2ccccc2)=C(C)N1`, the TGI with LOX IMVI melanoma came to 21.3 µM; with SNB-75 CNS it was 26.6 µM; in the assay with OVCAR-5 ovarian, 36.6 µM; with NCI-H226 lung, 30.4 µM; with UACC-257 melanoma, 29.4 µM; in the assay with CAKI-1 renal, 50 µM. Also, the TGI in the assay on ACHN renal is 27.4 µM; in the assay on OVCAR-3 ovarian, 19.2 µM.
With `c1ccc(CN(Cn2cccn2)Cn2cccn2)nc1`, the TGI with LOX IMVI melanoma, with SNB-75 CNS, in the assay on UACC-257 melanoma, in the assay on CAKI-1 renal, in the assay on ACHN renal and in the assay with SK-OV-3 ovarian was over 100 µM in each case. Besides, in the assay with OVCAR-3 ovarian, the TGI is over 100 µM.
For the compound `Nc1ccn(C2CC(CO)C(O)C2O)c(=O)n1` (stereo unspecified), the TGI with SNB-75 CNS, with NCI-H226 lung, with UACC-257 melanoma, in the assay on CAKI-1 renal, in the assay with ACHN renal and in the assay on SK-OV-3 ovarian was over 57.7 µM in each case. Further, in the assay with OVCAR-3 ovarian, the TGI is over 57.7 µM.
Take `Cc1ccc(Cl)c(NC(=O)C(=O)C(C(=O)c2ccncc2)C2OC(=O)c3ccccc32)c1` (stereo unspecified): the TGI in the assay with LOX IMVI melanoma, in the assay with SNB-75 CNS, in the assay on NCI-H226 lung, in the assay on UACC-257 melanoma, in the assay on CAKI-1 renal and with ACHN renal was over 100 µM each time. This compound also registered a TGI in the assay on SK-OV-3 ovarian of over 100 µM.
On to `O=C1C(=O)C(Br)(Br)C(Br)=C1Br`, for which the TGI in the assay with LOX IMVI melanoma was 31.9 µM; in the assay on SNB-75 CNS, 27.7 µM; with OVCAR-5 ovarian, 26.8 µM; with UACC-257 melanoma, 43.6 µM; in the assay with CAKI-1 renal it was 34.9 µM; in the assay on ACHN renal, 29.6 µM. Moreover, the TGI in the assay with SK-OV-3 ovarian was over 100 µM; in the assay with OVCAR-3 ovarian, 29.1 µM.
As for `COc1ccc(/C=C2\CCC(C)(CN(C)C)C2=O)cc1` (stereo unspecified), the TGI in the assay on LOX IMVI melanoma, in the assay on SNB-75 CNS, with OVCAR-5 ovarian, in the assay on NCI-H226 lung, in the assay with UACC-257 melanoma and in the assay with CAKI-1 renal was over 100 µM throughout. For the same compound, the TGI in the assay with ACHN renal and in the assay on OVCAR-3 ovarian was over 100 µM each time.
Take `O=c1c2ccccc2c2nc3ccccc3nc2n1C1CCCCC1`: the TGI in the assay on SNB-75 CNS, in the assay on OVCAR-5 ovarian, in the assay on NCI-H226 lung, in the assay with UACC-257 melanoma, in the assay with CAKI-1 renal and in the assay with ACHN renal was over 100 µM in each case. The TGI in the assay on SK-OV-3 ovarian and with OVCAR-3 ovarian was over 100 µM throughout.
For `CN(C)CC1(C)CC/C(=C\c2ccccc2)C1=O` (stereo unspecified), the TGI with LOX IMVI melanoma, in the assay on SNB-75 CNS, with OVCAR-5 ovarian, in the assay on NCI-H226 lung, in the assay on UACC-257 melanoma and in the assay on CAKI-1 renal was over 100 µM in each case. Moreover, the TGI with ACHN renal and in the assay on OVCAR-3 ovarian was over 100 µM in each case.
As for `CC12CCC[C@@](C)(C(=O)OC3OC(CO)C(O)C(O)C3O)[C@H]1CCC13CC4CC(OC4(CO)[C@H]1O)[C@@H]23` (stereo partly specified), the TGI in the assay on SNB-75 CNS, with OVCAR-5 ovarian, in the assay on NCI-H226 lung, in the assay on UACC-257 melanoma, in the assay with CAKI-1 renal and in the assay with ACHN renal was over 100 µM throughout. Further, the TGI in the assay with SK-OV-3 ovarian and in the assay with OVCAR-3 ovarian was over 100 µM each time.
In the case of `O=C(Nc1c(O)[nH]c(=S)[nH]c1=O)c1ccc2ccccc2n1`, the TGI in the assay on LOX IMVI melanoma, with SNB-75 CNS, in the assay on NCI-H226 lung, in the assay on UACC-257 melanoma, with CAKI-1 renal and in the assay with ACHN renal was over 100 µM each time. For the same compound, the TGI in the assay on SK-OV-3 ovarian and in the assay with OVCAR-3 ovarian was over 100 µM each time.
As for `CCOC(=O)/C(=C/c1ccc(C#N)cc1)N(CC)CC`, the TGI in the assay on LOX IMVI melanoma, in the assay with SNB-75 CNS, in the assay on OVCAR-5 ovarian, with NCI-H226 lung, in the assay with UACC-257 melanoma and in the assay on CAKI-1 renal was over 100 µM in each case. Moreover, the TGI in the assay on ACHN renal and in the assay with SK-OV-3 ovarian was over 100 µM in each case.
